Structures can show the parent of a compound that is named as a salt.

The target in assay [1] is T1, human JAK2 kinase domain (JH1) (Homo sapiens, UniProt O60674).
T1 construct: recombinantly generated catalytic kinase (also known as JH1) domain of human JAK1, JAK2, JAK3 and TYK2
Put plainly: JH1 biochemical assay for JAK2 (ADP-Glo kinase assay, recombinant JH1 catalytic domain, JAK3-974 peptide, 15 μM ATP). As to conditions: JAK2 JH1, ADP-Glo. The method, boiled down:
(§1)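 Luminescent ADP read-out after residual ATP depletion, 100 min reaction. Kinase domain concentrations were 4 nM (JAK1), 0.2 nM (JAK2), 0.3 nM (JAK3) and 2 nM (TYK2), each with 50 μM peptide. IC50 values came from 4-parameter logistic fits over 11 points, 3-fold steps, top 10 μM or 1 μM.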
On the technique in general: ADP-Glo first removes unused ATP, then detects ADP through luciferase.

For assay [2], the target named is T2, human JAK3 kinase domain (JH1) (Homo sapiens, UniProt P52333).
T2 construct: recombinantly generated catalytic kinase (also known as JH1) domain of human JAK1, JAK2, JAK3 and TYK2
Put plainly: JH1 biochemical assay for JAK3 (ADP-Glo kinase assay, recombinant JH1 catalytic domain, JAK3-974 peptide, 4 μM ATP). To be noted: JAK3 JH1, ADP-Glo. The method, boiled down:
as §1

Assay [3] has as its target T3, human JAK1 kinase domain (JH1) (Homo sapiens, UniProt P23458).
T3 construct: recombinantly generated catalytic kinase (also known as JH1) domain of human JAK1, JAK2, JAK3 and TYK2
The assay can be described thus: JH1 biochemical assay for JAK1 (ADP-Glo kinase assay, recombinant JH1 catalytic domain, JAK3-342 peptide, 35 μM ATP). To be noted: JAK1 JH1, ADP-Glo. The method, boiled down: as §1

Assay [4] has as its target T4, human TYK2 kinase domain (JH1) (Homo sapiens, UniProt P29597).
T4 construct: recombinantly generated catalytic kinase (also known as JH1) domain of human JAK1, JAK2, JAK3 and TYK2
T4 sequence (P29597 897-1176 limits assumed): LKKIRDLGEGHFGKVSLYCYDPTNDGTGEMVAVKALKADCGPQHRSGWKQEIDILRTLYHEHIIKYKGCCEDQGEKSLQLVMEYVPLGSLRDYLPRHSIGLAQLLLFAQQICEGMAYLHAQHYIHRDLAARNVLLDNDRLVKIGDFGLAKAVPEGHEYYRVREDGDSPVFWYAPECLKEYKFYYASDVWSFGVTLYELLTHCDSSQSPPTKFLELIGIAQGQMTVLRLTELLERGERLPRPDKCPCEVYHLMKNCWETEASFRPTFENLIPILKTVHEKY
The assay can be described thus: JH1 biochemical assay for TYK2 (ADP-Glo kinase assay, recombinant JH1 catalytic domain, JAK3-974 peptide, 10 μM ATP). To be noted: TYK2 JH1, ADP-Glo. The method, boiled down: as §1

T3 sequence (P23458 875-1153 limits assumed): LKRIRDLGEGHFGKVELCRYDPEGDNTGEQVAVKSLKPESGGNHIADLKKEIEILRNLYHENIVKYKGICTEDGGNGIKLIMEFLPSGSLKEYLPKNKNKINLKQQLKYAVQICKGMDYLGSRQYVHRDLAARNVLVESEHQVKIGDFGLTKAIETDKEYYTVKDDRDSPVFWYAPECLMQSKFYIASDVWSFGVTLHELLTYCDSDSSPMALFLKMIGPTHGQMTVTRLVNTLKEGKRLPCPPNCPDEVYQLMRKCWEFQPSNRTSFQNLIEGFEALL
T1 sequence (O60674 849-1124 limits assumed): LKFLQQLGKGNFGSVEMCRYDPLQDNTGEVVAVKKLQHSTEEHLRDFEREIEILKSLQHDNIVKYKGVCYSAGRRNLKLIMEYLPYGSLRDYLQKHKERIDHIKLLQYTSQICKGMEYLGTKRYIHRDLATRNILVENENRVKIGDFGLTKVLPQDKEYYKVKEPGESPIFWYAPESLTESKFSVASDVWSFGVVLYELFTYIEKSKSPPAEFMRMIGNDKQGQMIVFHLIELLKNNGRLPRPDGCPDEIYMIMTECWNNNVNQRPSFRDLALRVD
T2 sequence (P52333 822-1111 limits assumed): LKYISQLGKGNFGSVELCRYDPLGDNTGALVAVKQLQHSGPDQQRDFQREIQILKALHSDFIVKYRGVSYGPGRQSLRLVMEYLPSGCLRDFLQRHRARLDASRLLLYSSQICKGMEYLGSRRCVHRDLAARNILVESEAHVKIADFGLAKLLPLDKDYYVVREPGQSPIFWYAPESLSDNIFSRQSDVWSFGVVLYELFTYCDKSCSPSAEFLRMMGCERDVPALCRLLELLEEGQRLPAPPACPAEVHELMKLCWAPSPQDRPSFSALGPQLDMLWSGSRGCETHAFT

One may read the IC50 as the concentration needed to halve the response being measured. For `C[C@@H]1CN(c2nc(-c3cccnc3F)cn3nccc23)C(=O)[C@]1(C#N)C1CC1` [Example 226, (3R,4S)-3-cyclopropyl-1-(6-(2-fluoropyridin-3-yl)pyrazolo[1,5-a]pyrazin-4-yl)-4-methyl-2-oxopyrrolidine-3-carbonitrile trifluoroacetate], the IC50 in assay [1] is above 10000 nM; in assay [2], above 10000 nM; in assay [3] it was 5000 to 10000 nM; in assay [4], above 100 nM.
In the case of `C[C@@H]1CN(c2nc(-c3ccn(C)n3)cn3nccc23)C(=O)[C@]1(C#N)C1CC1` [Example 229, (3R,4S)-3-cyclopropyl-4-methyl-1-(6-(1-methyl-1H-pyrazol-3-yl)pyrazolo[1,5-a]pyrazin-4-yl)-2-oxopyrrolidine-3-carbonitrile trifluoroacetate], the IC50 in assay [1] was above 10000 nM; in assay [2] it was 1000 to 5000 nM; in assay [3], 1000 to 5000 nM; in assay [4], above 100 nM.
For `COc1cc(-c2cn3nccc3c(N3C[C@@H](C)[C@@](C#N)(C4CC4)C3=O)n2)ccn1` [Example 231, (3R,4S)-3-cyclopropyl-1-(6-(2-methoxy-pyridin-4-yl)pyrazolo[1,5-a]pyrazin-4-yl)-4-methyl-2-oxopyrrolidine-3-carbonitrile trifluoroacetate], the IC50 in assay [1] was above 10000 nM; in assay [2], above 10000 nM; in assay [3], above 10000 nM; in assay [4] it was above 100 nM.
As for `C[C@@H]1CN(c2nc(-c3ccc(C(F)(F)F)nc3)cn3nccc23)C(=O)[C@]1(C#N)C1CC1` [Example 238, (3R,4S)-3-cyclopropyl-4-methyl-2-oxo-1-(6-(6-(trifluoromethyl)pyridin-3-yl)pyrazolo[1,5-a]pyrazin-4-yl)pyrrolidine-3-carbonitrile trifluoroacetate], the IC50 in assay [1] is above 10000 nM; in assay [2], above 10000 nM; in assay [3] it was above 10000 nM; in assay [4], above 100 nM.
Turning to `COc1ncc(-c2cn3nccc3c(N3C[C@@H](C)[C@@](C#N)(C4CC4)C3=O)n2)cn1` [Example 240, (3R,4S)-3-cyclopropyl-1-(6-(2-methoxypyrimidin-5-yl)pyrazolo[1,5-a]pyrazin-4-yl)-4-methyl-2-oxopyrrolidine-3-carbonitrile trifluoroacetate], the IC50 in assay [1] is above 10000 nM; in assay [2] it was above 10000 nM; in assay [3], above 10000 nM; in assay [4] it was above 100 nM.
As for `Cc1cc(-c2cn3nccc3c(N3C[C@@H](C)[C@@](C#N)(C4CC4)C3=O)n2)ccn1` [Example 241, (3R,4S)-3-cyclopropyl-4-methyl-1-(6-(2-methylpyridin-4-yl)pyrazolo[1,5-a]pyrazin-4-yl)-2-oxopyrrolidine-3-carbonitrile trifluoroacetate], the concentration for half-maximal inhibition (IC50) was 1000 to 5000 nM in assay [1], 1000 to 5000 nM in assay [2], 100 to 1000 nM in assay [3] and 50 to 100 nM in assay [4].
For `C[C@@H]1CN(c2nc(-c3cccc4cnn(C)c34)cn3nccc23)C(=O)[C@]1(C#N)C1CC1` [Example 242, (3R,4S)-3-cyclopropyl-4-methyl-1-(6-(1-methyl-1H-indazol-7-yl)pyrazolo[1,5-a]pyrazin-4-yl)-2-oxopyrrolidine-3-carbonitrile], the half-maximal inhibitory concentration (IC50) in assay [1] was above 10000 nM; in assay [2], above 10000 nM; in assay [3], above 10000 nM; in assay [4], above 100 nM.
In the case of `C[C@@H]1CN(c2nc(-c3ccc(F)nc3)cn3nccc23)C(=O)[C@]1(C#N)C1CC1` [Example 243, (3R,4S)-3-cyclopropyl-1-(6-(6-fluoropyridin-3-yl)pyrazolo[1,5-a]pyrazin-4-yl)-4-methyl-2-oxopyrrolidine-3-carbonitrile trifluoroacetate], the IC50 was above 10000 nM in assay [1], 1000 to 5000 nM in assay [2], 1000 to 5000 nM in assay [3] and above 100 nM in assay [4].
Take `C[C@@H]1CN(c2nc(-c3cncc(F)c3)cn3nccc23)C(=O)[C@]1(C#N)C1CC1` [Example 246, (3R,4S)-3-cyclopropyl-1-(6-(5-fluoropyridin-3-yl)pyrazolo[1,5-a]pyrazin-4-yl)-4-methyl-2-oxopyrrolidine-3-carbonitrile trifluoroacetate]: the IC50 lay in the range of 100 to 1000 nM in assay [1], 100 to 1000 nM in assay [2], 100 to 1000 nM in assay [3] and 5 to 20 nM in assay [4].
In the case of `C[C@@H]1CN(c2nc(-c3ncc[nH]3)cn3nccc23)C(=O)[C@]1(C#N)C1CC1` [Example 247, (3R,4S)-1-(6-(1H-imidazol-2-yl)pyrazolo[1,5-a]pyrazin-4-yl)-3-cyclopropyl-4-methyl-2-oxopyrrolidine-3-carbonitrile trifluoroacetate], the IC50 in assay [1] is above 10000 nM; in assay [2], above 10000 nM; in assay [3], above 10000 nM; in assay [4], above 100 nM.
On to `C[C@@H]1CN(c2nc(-c3cncc(Cl)c3)cn3nccc23)C(=O)[C@]1(C#N)C1CC1` [Example 248, (3R,4S)-1-(6-(5-chloropyridin-3-yl)pyrazolo[1,5-a]pyrazin-4-yl)-3-cyclopropyl-4-methyl-2-oxopyrrolidine-3-carbonitrile trifluoroacetate], for which the IC50 is 1000 to 5000 nM in assay [1], 1000 to 5000 nM in assay [2], 100 to 1000 nM in assay [3] and 20 to 50 nM in assay [4].
On to `CC(=O)Nc1cncc(-c2cn3nccc3c(N3C[C@@H](C)[C@@](C#N)(C4CC4)C3=O)n2)c1` [Example 249, N-(5-(4-((3R,4S)-3-cyano-3-cyclopropyl-4-methyl-2-oxopyrrolidin-1-yl)pyrazolo[1,5-a]pyrazin-6-yl)pyridin-3-yl)acetamide trifluoroacetate], for which the IC50 is above 10000 nM in assay [1], 5000 to 10000 nM in assay [2], above 10000 nM in assay [3] and above 100 nM in assay [4].
For the molecule `COc1ncccc1-c1cn2nccc2c(N2C[C@@H](C)[C@@](C#N)(C3CC3)C2=O)n1` [Example 250, (3R,4S)-3-cyclopropyl-1-(6-(2-methoxypyridin-3-yl)pyrazolo[1,5-a]pyrazin-4-yl)-4-methyl-2-oxopyrrolidine-3-carbonitrile], the IC50 in assay [1] was in the range of 1000 to 5000 nM; in assay [2], 1000 to 5000 nM; in assay [3] it was 100 to 1000 nM; in assay [4], 20 to 50 nM.
For `COc1cc(-c2cn3nccc3c(N3C[C@@H](C)[C@@](C#N)(C4CC4)C3=O)n2)c(OC)nn1` [Example 253, (3R,4S)-3-cyclopropyl-1-(6-(3,6-dimethoxypyridazin-4-yl)pyrazolo[1,5-a]pyrazin-4-yl)-4-methyl-2-oxopyrrolidine-3-carbonitrile trifluoroacetate], the concentration for half-maximal inhibition (IC50) in assay [1] is above 10000 nM; in assay [2], 5000 to 10000 nM; in assay [3], 1000 to 5000 nM; in assay [4], 20 to 50 nM.
In the case of `C[C@@H]1CN(c2nc(-c3ccnn3C)cn3nccc23)C(=O)[C@]1(C#N)C1CC1` [Example 254, (3R,4S)-3-cyclopropyl-4-methyl-1-(6-(1-methyl-1H-pyrazol-5-yl)pyrazolo[1,5-a]pyrazin-4-yl)-2-oxopyrrolidine-3-carbonitrile trifluoroacetate], the IC50 in assay [1] lay within 100 to 1000 nM; in assay [2], 100 to 1000 nM; in assay [3] it was 100 to 1000 nM; in assay [4] it was 20 to 50 nM.
Consider `C[C@@H]1CN(c2nc(-c3cccc(F)n3)cn3nccc23)C(=O)[C@]1(C#N)C1CC1` [Example 255, (3R,4S)-3-cyclopropyl-1-(6-(6-fluoropyridin-2-yl)pyrazolo[1,5-a]pyrazin-4-yl)-4-methyl-2-oxopyrrolidine-3-carbonitrile trifluoroacetate], for which the half-maximal inhibitory concentration (IC50) in assay [1] was above 10000 nM; in assay [2] it was 100 to 1000 nM; in assay [3], below 100 nM; in assay [4], 20 to 50 nM.
For `C[C@@H]1CN(c2nc(-c3cccnc3OC(F)F)cn3nccc23)C(=O)[C@]1(C#N)C1CC1` [Example 256, (3R,4S)-3-cyclopropyl-1-(6-(2-(difluoromethoxy)pyridin-3-yl)pyrazolo[1,5-a]pyrazin-4-yl)-4-methyl-2-oxopyrrolidine-3-carbonitrile trifluoroacetate] the same measures were 1000 to 5000 nM, 1000 to 5000 nM, above 10000 nM and above 100 nM.
In the case of `C[C@@H]1CN(c2nc(-c3cncc(C(F)(F)F)c3)cn3nccc23)C(=O)[C@]1(C#N)C1CC1` [Example 260, (3R,4S)-3-cyclopropyl-4-methyl-2-oxo-1-(6-(5-(trifluoromethyl)pyridin-3-yl)pyrazolo[1,5-a]pyrazin-4-yl)pyrrolidine-3-carbonitrile trifluoroacetate], the IC50 lay within 1000 to 5000 nM in assay [1], 1000 to 5000 nM in assay [2], 100 to 1000 nM in assay [3] and 50 to 100 nM in assay [4].
On to `COc1ncc(-c2cn3nccc3c(N3C[C@@H](C)[C@@](C#N)(C4CC4)C3=O)n2)cc1C#N` [Example 262, 5-(4-((3R,4S)-3-cyano-3-cyclopropyl-4-methyl-2-oxopyrrolidin-1-yl)pyrazolo[1,5-a]pyrazin-6-yl)-2-methoxynicotinonitrile trifluoroacetate], for which the concentration for half-maximal inhibition (IC50) in assay [1] is above 10000 nM; in assay [2] it was above 10000 nM; in assay [3] it was above 10000 nM; in assay [4] it was 20 to 50 nM.

The record behind these values is US20260297085A1, “1 H-PYRROLO[2,3-B]PYRIDIN-4-YL]-2-OXOPYRROLIDINE-3-CARBONITRILE DERIVATIVES AS TYROSINE KINASE 2 (TYK2) INHIBITORS FOR THE TREATMENT OF INFLAMMATORY DISEASES” (BIOGEN MA INC., priority 2023, published 2026).
